Where “and” joins values, the source holds several entries; their conditions need not be identical. Equal entries are not always repeated.
Columns and labels:
rat [1] = experiment: concentration in blood after dosing; negative times count back from the end of exposure; settings: inhalation
Rat [2] = experiment: concentration in plasma after dosing; settings: dosed: 2-Methyltetrahydrofuran, 40 mg/kg, iv, Harlan Sprague Dawley
Rat [3] = experiment: concentration in brain after dosing; settings: dosed: 2-Methyltetrahydrofuran, 40 mg/kg, iv, Harlan Sprague Dawley

ClC=C(Cl)Cl [trichloroethylene]
rat [1], dosed: trichloroethylene, duration: 4 hr
Settings | concentration in blood [ng/mL]
-3.5 h, 600 ppm, female, F344, during exposure | 16800
-3.459 h, 600.4 ppm, female, F344, during exposure | 16200
-0.4732 h, 600.4 ppm, female, F344, during exposure | 29000
0.203 h, 50 ppm, male, Sprague Dawley | 936
0.2286 h, 50 ppm, male, Sprague Dawley | 807
0.2287 h, 50 ppm, male, Sprague Dawley | 1080
0.2341 h, 50 ppm, male, Sprague Dawley | 1130
0.2372 h, 600 ppm, female, F344 | 21800
0.2627 h, 600.4 ppm, female, F344 | 18800
0.4545 h, 50 ppm, male, Sprague Dawley | 1170
0.477 h, 50 ppm, male, Sprague Dawley | 624
0.4781 h, 50 ppm, male, Sprague Dawley | 461
0.4921 h, 50 ppm, male, Sprague Dawley | 758
0.4935 h, 600 ppm, female, F344 | 16100
0.5358 h, 600.4 ppm, female, F344 | 13400
0.9773 h, 600 ppm, female, F344 | 4980
0.9775 h, 50 ppm, male, Sprague Dawley | 548
0.9966 h, 50 ppm, male, Sprague Dawley | 412
1.025 h, 600.4 ppm, female, F344 | 8560
1.027 h, 50 ppm, male, Sprague Dawley | 319
1.739 h, 600 ppm, female, F344 | 2970
1.944 h, 50 ppm, male, Sprague Dawley | 181
1.987 h, 50 ppm, male, Sprague Dawley | 389
2.009 h, 50 ppm, male, Sprague Dawley | 301
2.054 h, 600.4 ppm, female, F344 | 3600
4.006 h, 50 ppm, male, Sprague Dawley | 217
4.049 h, 50 ppm, male, Sprague Dawley | 207
250 s, 600 ppm, female, F344 | 24700

rat [1], dosed: trichloroethylene, 50 ppm, duration: 4 hr, male, Sprague Dawley, during exposure
Settings | concentration in blood [ng/mL]
-313 s | 1440
-72 s | 1050
-67 s | 1720
-14 s | 2070
-3.578 h | 917
-3.528 h | 611
-3.504 h | 680
-3.419 h | 998
-3.27 h | 824
-3.051 h | 1330
-3.011 h | 745
-3.008 h | 1370
-2.984 h | 1290
-2.064 h | 1650
-2.027 h | 1110
-2.007 h | 1380
-1.985 h | 1950
-1.07 h | 1850
-1.031 h | 1920
-1.023 h | 1010
-1.012 h | 1700

CCC(C)(C)O [tertiary amyl alcohol]
rat [1], dosed: tert-amyl methyl ether, duration: 6 hr, male, F344 (Charles River)
Settings | concentration in blood [ng/mL]
0.1349 h, 100 ppm | 3120
0.1606 h, 500 ppm | 18700
0.161 h, 100 ppm | 2610
0.1742 h, 500 ppm | 28700
0.1776 h, 100 ppm | 4090
0.1793 h, 100 ppm | 3740
0.2114 h, 500 ppm | 25900
0.3273 h, 2500 ppm | 96000
0.3463 h, 2500 ppm | 119000
0.3468 h, 100 ppm | 3320
0.3507 h, 100 ppm | 2500
0.3521 h, 500 ppm | 18700
0.3559 h, 2500 ppm | 101000
0.358 h, 500 ppm | 33000
0.3593 h, 500 ppm | 32300
0.3685 h, 100 ppm | 3740
0.369 h, 100 ppm | 3620
0.3717 h, 500 ppm | 25500
0.8785 h, 2500 ppm | 113000
0.8797 h, 2500 ppm | 110000
0.8894 h, 2500 ppm | 91700
0.8908 h, 2500 ppm | 89100
0.9009 h, 100 ppm | 1190
0.9009 h, 500 ppm | 15400
0.9138 h, 500 ppm | 25900
0.9151 h, 500 ppm | 25100
0.9198 h, 100 ppm | 2180
0.9217 h, 500 ppm | 21500
0.9218 h, 100 ppm | 1760
1.789 h, 2500 ppm | 96800
1.799 h, 2500 ppm | 76700
1.823 h, 100 ppm | 1290
1.824 h, 2500 ppm | 89300
2.017 h, 500 ppm | 16200
2.018 h, 500 ppm | 15400
2.026 h, 500 ppm | 11400
3.851 h, 500 ppm | 8400
3.852 h, 500 ppm | 7720
3.858 h, 500 ppm | 4810
3.985 h, 2500 ppm | 61200
3.989 h, 2500 ppm | 52300
3.99 h, 2500 ppm | 49700
3.991 h, 2500 ppm | 48600
9.831 h, 2500 ppm | 3190
9.837 h, 500 ppm | 123
17.91 h, 500 ppm | 185
36 s, 100 ppm | 4500

rat [1], dosed: tert-amyl methyl ether, duration: 6 hr, male, F344 (Charles River), during exposure
Settings | concentration in blood
-112 s, 100 ppm | 3220 ng/mL
-97 s, 100 ppm | 2350 ng/mL
-51 s, 500 ppm | 27000 ng/mL
-36 s, 100 ppm | 3730 ng/mL
-27 s, 500 ppm | 23300 ng/mL
-5.969 h, 2500 ppm | 2030 ng/mL
-5.968 h, 2500 ppm | 298 ng/mL
-5.931 h, 100 ppm | 373 ng/mL
-5.788 h, 100 ppm | 269 ng/mL
-5.779 h, 500 ppm | 1540 ng/mL
-5.777 h, 500 ppm | 432 ng/mL
-5.722 h, 2500 ppm | 4830 ng/mL
-5.695 h, 100 ppm | 530 ng/mL
-5.662 h, 2500 ppm | 10000 ng/mL
-5.661 h, 2500 ppm | 6980 ng/mL
-5.626 h, 100 ppm | 895 ng/mL
-5.601 h, 100 ppm | 790 ng/mL
-5.589 h, 500 ppm | 2720 ng/mL
-5.079 h, 2500 ppm | 24900 ng/mL
-5.077 h, 2500 ppm | 21200 ng/mL
-5.075 h, 2500 ppm | 17100 ng/mL
-5.019 h, 500 ppm | 5250 ng/mL
-5.017 h, 500 ppm | 4200 ng/mL
-5.015 h, 100 ppm | 1710 ng/mL
-5.013 h, 100 ppm | 1350 ng/mL
-5.012 h, 100 ppm | 1200 ng/mL
-5.011 h, 100 ppm | 882 ng/mL
-4.072 h, 100 ppm | 2490 ng/mL
-4.07 h, 100 ppm | 2010 ng/mL
-4.069 h, 100 ppm | 1890 ng/mL and 1860 ng/mL
-3.994 h, 2500 ppm | 30900 ng/mL
-3.993 h, 2500 ppm | 29600 ng/mL
-3.992 h, 2500 ppm | 28500 ng/mL
-3.908 h, 500 ppm | 8890 ng/mL
-3.906 h, 500 ppm | 7410 ng/mL
-2.076 h, 500 ppm | 19600 ng/mL
-2.075 h, 500 ppm | 19000 ng/mL
-2.065 h, 100 ppm | 3210 ng/mL
-2.062 h, 100 ppm | 2590 ng/mL
-2.061 h, 100 ppm | 2340 ng/mL
-2.046 h, 100 ppm | 4250 ng/mL
-2.018 h, 2500 ppm | 59800 ng/mL
-2.017 h, 2500 ppm | 58900 ng/mL
-2 h, 2500 ppm | 84600 ng/mL
-1.996 h, 2500 ppm | 78100 ng/mL
-0.2032 h, 2500 ppm | 99500 ng/mL
-0.1979 h, 2500 ppm | 89100 ng/mL
-0.1701 h, 2500 ppm | 95600 ng/mL
-0.031 h, 500 ppm | 18700 ng/mL

CC1CCCO1 (configuration not stated) [2-Methyltetrahydrofuran]
Settings | concentration in brain, Rat [3] [ng/mL] | concentration in plasma, Rat [2] [ng/mL]
0.2 h, Male | 24700 | 35000
0.5 h, Female | 15400 | 27200
0.5 h, Male | 13500 | 32200
0.75 h, Male | 22000 | 24000
1.5 h, Male | 9210 | 14000
2 h, Female | 5700 | 7560
2 h, Male | 9630 | 10700
2 min, Female | 41700 | 73300
2 min, Male | 32400 | 50000
4 h, Female | 73.6 | 101
4 h, Male | 356 | 977
6 h, Female | – | 13.3
6 h, Male | 21.5 | 8.93
7 min, Male | 29700 | 46500

Reference: EPA's CvTdb concentration-time database
